From ChEMBL document CHEMBL4152300, “Discovery of the selective and efficacious inhibitors of FLT3 mutations” (Eur J Med Chem, 2018)

What was measured:
[1] = molecular target: CDK2 (cyclin-dependent kinase 2) (Homo sapiens, UniProt P24941); assay: Inhibition of CDK2 (unknown origin) assessed as residual activity at 0.123 uM by Hotspot assay relative to control; details: CDK2 enzyme (unknown origin), read-out: Activity
[2] = molecular target: Cyclin-dependent kinase 6 (Homo sapiens, UniProt Q00534); assay: Inhibition of CDK6 (unknown origin) assessed as residual activity at 0.123 uM by Hotspot assay relative to control
[3] = Intrinsic clearance in human liver microsomes preincubated for 5 mins followed by NADPH addition by LC-MS/MS analysis; assay type: ADME, microsome; details: read-out: CLH
[4] = Drug uptake in human liver microsomes up to 60 mins by LC-MS/MS analysis; assay type: ADME, microsome; details: 1 h
[5] = molecular target: Vascular endothelial growth factor receptor 2 (Homo sapiens, UniProt P35968); assay: Inhibition of human KDR by Hotspot assay
Vascular endothelial growth factor receptor 2, sequence (P35968 whole entry): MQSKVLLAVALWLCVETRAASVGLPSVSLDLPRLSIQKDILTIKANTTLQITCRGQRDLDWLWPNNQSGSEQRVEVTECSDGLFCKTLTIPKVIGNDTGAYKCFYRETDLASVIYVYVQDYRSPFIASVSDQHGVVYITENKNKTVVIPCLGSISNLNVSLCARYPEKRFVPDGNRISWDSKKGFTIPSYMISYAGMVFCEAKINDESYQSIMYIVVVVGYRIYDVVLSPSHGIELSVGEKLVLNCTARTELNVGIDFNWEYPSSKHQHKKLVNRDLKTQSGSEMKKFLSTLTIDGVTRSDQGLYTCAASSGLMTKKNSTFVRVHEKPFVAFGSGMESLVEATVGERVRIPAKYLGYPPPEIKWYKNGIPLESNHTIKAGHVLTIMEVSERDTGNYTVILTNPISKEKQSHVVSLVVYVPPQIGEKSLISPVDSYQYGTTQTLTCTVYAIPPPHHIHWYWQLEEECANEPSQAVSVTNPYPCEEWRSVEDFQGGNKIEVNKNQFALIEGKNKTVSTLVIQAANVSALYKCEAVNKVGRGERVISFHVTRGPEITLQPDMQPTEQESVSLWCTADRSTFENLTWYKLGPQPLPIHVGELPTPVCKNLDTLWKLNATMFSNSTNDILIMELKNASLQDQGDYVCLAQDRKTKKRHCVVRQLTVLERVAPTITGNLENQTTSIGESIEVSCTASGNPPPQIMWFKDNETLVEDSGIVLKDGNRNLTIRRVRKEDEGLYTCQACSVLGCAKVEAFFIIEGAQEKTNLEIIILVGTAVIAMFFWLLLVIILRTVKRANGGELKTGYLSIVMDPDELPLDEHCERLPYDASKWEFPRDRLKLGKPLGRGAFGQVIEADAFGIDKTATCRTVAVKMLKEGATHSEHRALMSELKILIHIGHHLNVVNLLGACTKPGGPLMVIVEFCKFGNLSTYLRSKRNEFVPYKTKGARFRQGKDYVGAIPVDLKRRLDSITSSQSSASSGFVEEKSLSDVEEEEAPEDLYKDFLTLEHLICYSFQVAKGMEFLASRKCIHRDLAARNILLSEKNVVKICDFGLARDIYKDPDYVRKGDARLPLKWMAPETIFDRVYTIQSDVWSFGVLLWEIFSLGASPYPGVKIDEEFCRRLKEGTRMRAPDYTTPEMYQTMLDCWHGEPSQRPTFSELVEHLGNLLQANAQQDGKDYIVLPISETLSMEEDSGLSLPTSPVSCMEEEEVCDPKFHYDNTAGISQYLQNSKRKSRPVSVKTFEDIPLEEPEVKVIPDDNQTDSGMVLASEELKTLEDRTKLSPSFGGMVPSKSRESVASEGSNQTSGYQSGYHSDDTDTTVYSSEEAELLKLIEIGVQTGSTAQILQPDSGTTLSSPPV

[6] = molecular target: T1, Vascular endothelial growth factor receptor 3 (Homo sapiens, UniProt P35916); assay: Inhibition of human FLT4 by Hotspot assay
T1 sequence (P35916 whole entry): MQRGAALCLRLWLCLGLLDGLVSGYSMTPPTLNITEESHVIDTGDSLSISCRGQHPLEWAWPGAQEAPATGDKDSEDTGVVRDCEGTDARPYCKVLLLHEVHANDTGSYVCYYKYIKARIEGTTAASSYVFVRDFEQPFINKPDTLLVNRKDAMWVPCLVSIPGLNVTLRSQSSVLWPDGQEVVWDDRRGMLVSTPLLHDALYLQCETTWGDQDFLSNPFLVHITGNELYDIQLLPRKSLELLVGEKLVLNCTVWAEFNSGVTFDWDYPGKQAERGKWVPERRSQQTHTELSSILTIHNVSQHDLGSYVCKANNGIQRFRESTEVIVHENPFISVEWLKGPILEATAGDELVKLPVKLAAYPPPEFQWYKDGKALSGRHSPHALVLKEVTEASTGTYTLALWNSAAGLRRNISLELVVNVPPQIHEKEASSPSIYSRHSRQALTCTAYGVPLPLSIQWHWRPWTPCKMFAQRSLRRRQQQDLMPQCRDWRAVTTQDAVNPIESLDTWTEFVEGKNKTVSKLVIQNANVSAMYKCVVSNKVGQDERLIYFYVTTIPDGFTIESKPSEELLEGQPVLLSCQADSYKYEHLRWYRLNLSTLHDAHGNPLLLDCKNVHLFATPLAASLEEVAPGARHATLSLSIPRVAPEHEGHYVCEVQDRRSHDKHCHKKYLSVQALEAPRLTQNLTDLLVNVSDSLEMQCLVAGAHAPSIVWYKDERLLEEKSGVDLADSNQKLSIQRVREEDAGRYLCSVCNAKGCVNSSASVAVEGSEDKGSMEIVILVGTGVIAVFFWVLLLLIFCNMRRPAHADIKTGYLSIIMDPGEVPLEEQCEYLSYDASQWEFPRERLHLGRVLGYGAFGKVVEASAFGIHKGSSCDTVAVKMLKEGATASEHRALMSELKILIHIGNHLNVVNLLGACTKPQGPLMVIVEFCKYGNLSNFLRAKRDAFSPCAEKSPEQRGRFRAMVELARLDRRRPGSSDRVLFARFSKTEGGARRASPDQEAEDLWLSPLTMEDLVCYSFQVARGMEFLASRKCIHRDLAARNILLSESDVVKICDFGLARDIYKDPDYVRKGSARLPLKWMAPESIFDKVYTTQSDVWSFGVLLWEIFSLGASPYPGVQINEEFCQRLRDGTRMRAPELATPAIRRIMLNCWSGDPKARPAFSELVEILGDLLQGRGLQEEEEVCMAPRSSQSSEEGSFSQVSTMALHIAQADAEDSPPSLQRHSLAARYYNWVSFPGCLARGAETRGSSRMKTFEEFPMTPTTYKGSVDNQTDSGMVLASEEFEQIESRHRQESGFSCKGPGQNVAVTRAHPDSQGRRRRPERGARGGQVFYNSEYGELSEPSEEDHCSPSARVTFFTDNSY

[7] = molecular target: Mast/stem cell growth factor receptor Kit (Homo sapiens, UniProt P10721); assay: Inhibition of human KIT at 0.123 uM by Hotspot assay
Mast/stem cell growth factor receptor Kit, sequence (P10721 whole entry): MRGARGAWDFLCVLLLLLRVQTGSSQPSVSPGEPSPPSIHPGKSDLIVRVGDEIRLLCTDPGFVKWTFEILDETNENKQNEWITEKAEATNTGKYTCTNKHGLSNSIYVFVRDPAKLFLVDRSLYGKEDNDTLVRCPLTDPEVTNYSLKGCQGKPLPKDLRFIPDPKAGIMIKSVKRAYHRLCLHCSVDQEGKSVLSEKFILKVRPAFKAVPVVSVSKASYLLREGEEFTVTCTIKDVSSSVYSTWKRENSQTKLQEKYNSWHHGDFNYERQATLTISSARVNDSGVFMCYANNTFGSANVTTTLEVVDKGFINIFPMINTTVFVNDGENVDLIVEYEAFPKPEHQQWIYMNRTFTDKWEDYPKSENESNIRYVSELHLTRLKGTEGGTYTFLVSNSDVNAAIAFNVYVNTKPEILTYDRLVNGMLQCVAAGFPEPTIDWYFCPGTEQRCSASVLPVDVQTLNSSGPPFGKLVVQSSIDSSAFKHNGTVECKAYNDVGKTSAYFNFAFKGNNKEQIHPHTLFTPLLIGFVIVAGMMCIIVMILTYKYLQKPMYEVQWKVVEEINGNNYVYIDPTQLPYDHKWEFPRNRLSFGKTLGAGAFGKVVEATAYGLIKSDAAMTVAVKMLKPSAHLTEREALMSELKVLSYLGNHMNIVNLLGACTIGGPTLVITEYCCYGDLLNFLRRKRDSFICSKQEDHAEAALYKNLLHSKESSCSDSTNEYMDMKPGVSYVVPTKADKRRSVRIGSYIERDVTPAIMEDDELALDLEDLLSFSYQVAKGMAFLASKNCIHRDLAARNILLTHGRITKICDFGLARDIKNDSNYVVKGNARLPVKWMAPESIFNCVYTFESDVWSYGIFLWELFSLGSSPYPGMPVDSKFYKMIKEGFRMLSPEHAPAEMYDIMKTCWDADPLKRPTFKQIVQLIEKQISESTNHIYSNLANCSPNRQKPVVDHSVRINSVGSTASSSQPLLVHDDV

[8] = molecular target: Vascular endothelial growth factor receptor 1 (Homo sapiens, UniProt P17948); assay: Inhibition of human FLT1 at 0.123 uM by Hotspot assay relative to control
Vascular endothelial growth factor receptor 1, sequence (P17948 whole entry): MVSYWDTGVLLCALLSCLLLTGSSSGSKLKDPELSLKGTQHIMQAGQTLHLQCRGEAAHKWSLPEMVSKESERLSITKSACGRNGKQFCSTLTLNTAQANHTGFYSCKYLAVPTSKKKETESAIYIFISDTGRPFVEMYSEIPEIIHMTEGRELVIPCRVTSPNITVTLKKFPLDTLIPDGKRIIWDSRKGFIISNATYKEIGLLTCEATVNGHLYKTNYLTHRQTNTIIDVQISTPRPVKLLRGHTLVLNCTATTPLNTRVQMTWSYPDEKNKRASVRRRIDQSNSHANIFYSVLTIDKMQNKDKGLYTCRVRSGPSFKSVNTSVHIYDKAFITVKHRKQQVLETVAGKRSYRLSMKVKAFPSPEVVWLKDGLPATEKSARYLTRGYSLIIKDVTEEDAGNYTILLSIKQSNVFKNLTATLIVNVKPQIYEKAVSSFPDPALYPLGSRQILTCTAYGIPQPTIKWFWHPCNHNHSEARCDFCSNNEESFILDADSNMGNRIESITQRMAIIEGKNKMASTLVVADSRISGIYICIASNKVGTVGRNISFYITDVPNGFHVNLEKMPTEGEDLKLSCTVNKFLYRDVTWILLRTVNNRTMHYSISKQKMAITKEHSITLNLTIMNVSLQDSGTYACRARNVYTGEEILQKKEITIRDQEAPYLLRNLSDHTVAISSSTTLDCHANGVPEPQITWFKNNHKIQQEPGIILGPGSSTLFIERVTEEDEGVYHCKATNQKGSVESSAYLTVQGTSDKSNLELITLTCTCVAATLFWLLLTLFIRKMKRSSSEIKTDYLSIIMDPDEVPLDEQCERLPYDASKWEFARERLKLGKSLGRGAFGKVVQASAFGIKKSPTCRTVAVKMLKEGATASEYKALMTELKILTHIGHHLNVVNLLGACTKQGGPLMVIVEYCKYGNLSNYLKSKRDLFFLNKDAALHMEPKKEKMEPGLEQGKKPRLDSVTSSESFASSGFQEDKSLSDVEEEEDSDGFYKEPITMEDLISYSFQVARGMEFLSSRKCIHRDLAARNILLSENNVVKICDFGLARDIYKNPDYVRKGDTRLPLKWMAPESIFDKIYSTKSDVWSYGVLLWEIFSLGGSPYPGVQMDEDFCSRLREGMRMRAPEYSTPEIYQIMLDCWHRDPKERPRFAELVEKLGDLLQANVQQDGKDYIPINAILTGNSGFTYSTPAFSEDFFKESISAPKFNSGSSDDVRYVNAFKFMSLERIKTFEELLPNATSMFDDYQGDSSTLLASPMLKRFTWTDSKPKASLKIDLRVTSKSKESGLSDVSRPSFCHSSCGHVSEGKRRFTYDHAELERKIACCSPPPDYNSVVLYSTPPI

[9] = molecular target: T1, Vascular endothelial growth factor receptor 3; assay: Inhibition of human FLT4 at 0.123 uM by Hotspot assay relative to control
[10] = organism: Homo sapiens; assay: Selectivity ratio of IC50 for human FLT4 to IC50 for human FLT3
[11] = molecular target: T2, Receptor-type tyrosine-protein kinase FLT3 (Homo sapiens, UniProt P36888, D835Y); assay: Inhibition of human FLT3 D835Y mutant by Hotspot assay
[12] = molecular target: T3, Receptor-type tyrosine-protein kinase FLT3 (Homo sapiens, UniProt P36888); assay: Inhibition of human FLT3 F594_R595insREY mutant by Hotspot assay
[13] = molecular target: T3, Receptor-type tyrosine-protein kinase FLT3; assay: Inhibition of human FLT3 F594_R595insR mutant by Hotspot assay
[14] = molecular target: Receptor-type tyrosine-protein kinase FLT3 (Homo sapiens, UniProt P36888, ITD); assay: Inhibition of human FLT3 ITD-NPOS mutant by Hotspot assay
[15] = molecular target: T3, Receptor-type tyrosine-protein kinase FLT3; assay: Inhibition of human FLT3 R595_E596 mutant by Hotspot assay
[16] = molecular target: T2, Receptor-type tyrosine-protein kinase FLT3; assay: Binding affinity to human FLT3 D835Y mutant (Q580 to Y969 residues) expressed in bacterial expression system by Kinomescan method
[17] = molecular target: Receptor-type tyrosine-protein kinase FLT3 (Homo sapiens, UniProt P36888, D835V/ITD); assay: Binding affinity to human FLT3 ITD/D835V double mutant expressed in bacterial expression system by Kinomescan method
[18] = molecular target: Receptor-type tyrosine-protein kinase FLT3 (Homo sapiens, UniProt P36888, F691L/ITD); assay: Binding affinity to human FLT3 ITD/F691L double mutant expressed in bacterial expression system by Kinomescan method
[19] = system: K562; assay: Growth inhibition of FLT3 null human K562 cells after 72 hrs by Cell-Titer Glo assay; assay type: functional, cell-based; details: K562, 72 h
[20] = molecular target: T3, Receptor-type tyrosine-protein kinase FLT3; assay: Inhibition of FLT3 phosphorylation at Tyr589/591 residues in human MV4-11 cells after 4 hrs by Western blot analysis; assay type: cell-based
[21] = molecular target: T3, Receptor-type tyrosine-protein kinase FLT3; assay: Inhibition of FLT3 in human MV4-11 cells assessed as reduction in STAT5 phosphorylation at Tyr694 residue after 4 hrs by Western blot analysis; assay type: cell-based
[22] = molecular target: T3, Receptor-type tyrosine-protein kinase FLT3; assay: Inhibition of FLT3 in human MV4-11 cells assessed as reduction in AKT phosphorylation at Ser473 residue after 4 hrs by Western blot analysis; assay type: cell-based
[23] = molecular target: T3, Receptor-type tyrosine-protein kinase FLT3; assay: Inhibition of FLT3 in human MV4-11 cells assessed as reduction in ERK1/2 phosphorylation at Thr202/Tyr204 residues after 4 hrs by Western blot analysis; assay type: cell-based
[24] = system: MV4-11; assay: Induction of apoptosis in human MV4-11 cells assessed as early apoptotic cells at 0.2 uM after 24 hrs by Annexin V-FITC/propidium iodide staining based flow cytometry (reference value: 0%); assay type: functional
[25] = system: MV4-11; assay: Induction of apoptosis in human MV4-11 cells assessed as late apoptotic cells at 0.2 uM after 24 hrs by Annexin V-FITC/propidium iodide staining based flow cytometry (reference value: 0%); assay type: functional
[26] = system: MV4-11; assay: Induction of apoptosis in human MV4-11 cells assessed as necrotic cells at 0.2 uM after 24 hrs by Annexin V-FITC/propidium iodide staining based flow cytometry (reference value: 0%); assay type: functional
[27] = system: MV4-11; assay: Induction of apoptosis in human MV4-11 cells assessed as early apoptotic cells at 0.5 uM after 24 hrs by Annexin V-FITC/propidium iodide staining based flow cytometry (reference value: 0%); assay type: functional
[28] = system: MV4-11; assay: Induction of apoptosis in human MV4-11 cells after 24 hrs by Annexin V-FITC/propidium iodide staining based flow cytometry; assay type: functional, cell-based
[29] = molecular target: T4, Receptor-type tyrosine-protein kinase FLT3 (Homo sapiens, UniProt P36888)
T4 sequence (P36888 whole entry): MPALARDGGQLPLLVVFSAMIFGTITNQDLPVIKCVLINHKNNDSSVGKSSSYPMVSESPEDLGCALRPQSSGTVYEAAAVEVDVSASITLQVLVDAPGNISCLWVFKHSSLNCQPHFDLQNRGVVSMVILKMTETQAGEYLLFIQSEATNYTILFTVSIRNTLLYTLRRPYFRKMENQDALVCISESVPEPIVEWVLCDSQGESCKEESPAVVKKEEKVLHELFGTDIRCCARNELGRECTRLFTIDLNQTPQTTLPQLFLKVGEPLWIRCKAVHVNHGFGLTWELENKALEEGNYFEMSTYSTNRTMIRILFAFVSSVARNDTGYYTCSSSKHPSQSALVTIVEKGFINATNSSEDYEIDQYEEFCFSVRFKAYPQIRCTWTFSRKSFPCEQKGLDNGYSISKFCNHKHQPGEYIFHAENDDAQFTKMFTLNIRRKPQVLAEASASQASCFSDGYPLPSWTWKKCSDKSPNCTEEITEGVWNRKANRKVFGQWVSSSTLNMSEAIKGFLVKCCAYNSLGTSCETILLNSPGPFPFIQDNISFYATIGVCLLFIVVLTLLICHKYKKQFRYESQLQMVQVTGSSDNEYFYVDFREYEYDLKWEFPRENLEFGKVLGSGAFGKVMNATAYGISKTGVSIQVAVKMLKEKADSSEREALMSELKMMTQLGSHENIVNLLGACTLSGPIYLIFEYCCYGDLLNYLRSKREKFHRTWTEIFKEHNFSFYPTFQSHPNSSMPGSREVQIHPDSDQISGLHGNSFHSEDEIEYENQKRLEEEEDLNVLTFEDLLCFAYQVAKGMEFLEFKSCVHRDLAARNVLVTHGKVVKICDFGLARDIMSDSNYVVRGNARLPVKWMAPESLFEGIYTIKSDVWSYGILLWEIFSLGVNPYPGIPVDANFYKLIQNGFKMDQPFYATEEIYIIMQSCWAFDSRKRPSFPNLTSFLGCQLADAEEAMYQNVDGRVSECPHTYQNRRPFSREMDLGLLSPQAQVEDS
Description: Inhibition of human FLT3 by Hotspot assay

Q: With `Cc1nc2c(c(Nc3c[nH]nc3C(=O)Nc3ccc(N4CCNCC4)cc3)n1)CCC2` as the compound, how does the activity at 0.123 µM [1] read?
A: 86.3%

Q: What about the Activity [2] of the same compound?
A: 91.2%

Q: And the microsomal CLint [3]?
A: 9.4 µL/min/mg

Q: And the Drug uptake [4]?
A: 28.7%

Q: What about the IC50 [5] of the same compound?
A: 94.6 nM

Q: What about the IC50 [6] of the same compound?
A: 23 nM

Q: And the “inhibition (INH)” value [7]?
A: Not Active

Q: What about the inhibition [8] of the same compound?
A: > 50%

Q: What about the inhibition [9] of the same compound?
A: > 50%

Q: What about the Ratio IC50 [10] of the same compound?
A: 120

Q: What about the IC50 [11] of the same compound?
A: 1.79 nM

Q: What about the IC50 [12] of the same compound?
A: 9.15 nM

Q: What about the IC50 [13] of the same compound?
A: 6.97 nM

Q: And the IC50 [14]?
A: 14.9 nM

Q: What about the IC50 [15] of the same compound?
A: 8.74 nM

Q: And the Kd [16]?
A: 5.33 nM

Q: What about the Kd [17] of the same compound?
A: 3.7 nM

Q: And the Kd [18]?
A: 13.1 nM

Q: And the IC50 [19]?
A: 11600 nM

Q: And the inhibition [20]?
A: Dose-dependent effect

Q: And the inhibition [21]?
A: Dose-dependent effect

Q: And the inhibition [22]?
A: Dose-dependent effect

Q: And the inhibition [23]?
A: Dose-dependent effect

Q: And the Activity [24]?
A: 23%

Q: And the Activity [25]?
A: 12.8%

Q: What about the Activity [26] of the same compound?
A: 1.92%

Q: What about the Activity [27] of the same compound?
A: 60.4%

Q: And the Activity [28]?
A: Dose-dependent effect

Q: What about the IC50 [29] of the same compound?
A: 0.19 to 0.21 nM
